Assays:
morningglory = assay: Test B pre/postemergence morningglory; format: in vivo, Ipomoea hederacea; settings: for Morningglory plant response rating: scale of 0 to 10 where 0 is no effect and 10 is complete control
Procedure, shortened: (§1)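 Test chemicals in a non-phytotoxic solvent mixture with surfactant were sprayed preemergence onto planted seeds and postemergence onto plants 2 to 18 cm tall (1- to 4-leaf stage). After twelve to sixteen days in a greenhouse, injury was visually rated against untreated controls from 0 (no effect) to 10 (complete control).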

smallflower flatsedge = assay: Test B flood test smallflower flatsedge; format: in vivo, Cyperus difformis
Procedure, shortened: (§2)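 Read-out is a visual response score from 0 (no effect) to 10 (complete control), assigned by comparison with untreated controls. Treatment was applied at the 2-leaf stage, and plants stayed in the greenhouse for twelve to sixteen days before scoring.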

sugar beet = assay: Test B pre/postemergence sugar beet; format: in vivo, Beta vulgaris; settings: for Sugarbeets plant response rating: scale of 0 to 10 where 0 is no effect and 10 is complete control
Procedure, shortened: as §1

velvetleaf = assay: Test B pre/postemergence velvetleaf; format: in vivo, Abutilon theophrasti; settings: for Velvetleaf plant response rating: scale of 0 to 10 where 0 is no effect and 10 is complete control
Procedure, shortened: as §1

cocklebur = assay: Test B pre/postemergence cocklebur; format: in vivo, Xanthium strumarium; settings: for Cocklebur plant response rating: scale of 0 to 10 where 0 is no effect and 10 is complete control
Procedure, shortened: as §1

giant foxtail = assay: Test B pre/postemergence giant foxtail; format: in vivo, Setaria faberii; settings: for Giant foxtail plant response rating: scale of 0 to 10 where 0 is no effect and 10 is complete control
Procedure, shortened: as §1

surinam grass = assay: Test B pre/postemergence surinam grass; format: in vivo, Brachiaria decumbens
Procedure, shortened: as §1

purple nutsedge = assay: Test B pre/postemergence purple nutsedge; format: in vivo, Cyperus rotundus; settings: for Nutsedge plant response rating: scale of 0 to 10 where 0 is no effect and 10 is complete control
Procedure, shortened: as §1

wheat = assay: Test B pre/postemergence wheat; format: in vivo, Triticum aestivum; settings: for Wheat plant response rating: scale of 0 to 10 where 0 is no effect and 10 is complete control
Procedure, shortened: as §1

blackgrass = assay: Test B pre/postemergence blackgrass; format: in vivo, Alopecurus myosuroides
Procedure, shortened: as §1

pigweed = assay: Test B pre/postemergence pigweed; format: in vivo, Amaranthus retroflexus; settings: for Redroot pigweed plant response rating: scale of 0 to 10 where 0 is no effect and 10 is complete control
Procedure, shortened: as §1

duck salad = assay: Test B flood test duck salad; format: in vivo, Heteranthera limosa
Procedure, shortened: as §2

rape = assay: Test B pre/postemergence rape; format: in vivo, Brassica napus; settings: for Rape plant response rating: scale of 0 to 10 where 0 is no effect and 10 is complete control
Procedure, shortened: as §1

crabgrass = assay: Test B pre/postemergence crabgrass; format: in vivo, Digitaria sanguinalis; settings: for Crabgrass plant response rating: scale of 0 to 10 where 0 is no effect and 10 is complete control
Procedure, shortened: as §1

rice = assay: Test B flood test rice; format: in vivo, Oryza sativa
Procedure, shortened: as §2

corn = assay: Test B pre/postemergence corn; format: in vivo, Zea mays; settings: for Corn plant response rating: scale of 0 to 10 where 0 is no effect and 10 is complete control
Procedure, shortened: as §1

[1] = Postemergence, Rate 125 g/ha, scale 0 to 10, 0 is no effect, 10 is complete control
[2] = Preemergence, Rate 62 g/ha, scale 0 to 10 (0 no effect, 10 complete control)
[3] = Rate 500 g/ha, Postemergence, scale 0 to 10, 0 no effect, 10 complete control
[4] = Postemergence (flood test), Rate 125 g/ha, scale 0 to 10, 0 is no effect, 10 is complete control
[5] = Rate 62 g/ha, Postemergence (flood test species), scale of 0 to 10 where 0 is no effect and 10 is complete control
[6] = Rate 500 g/ha, listed under Postemergence (flood test species), scale 0 to 10, 0 no effect, 10 complete control
[7] = Preemergence, Rate 250 g/ha, scale of 0 to 10 where 0 is no effect and 10 is complete control
[8] = Preemergence, Rate 500 g/ha, scale of 0 to 10 where 0 is no effect and 10 is complete control
[9] = Rate 62 g/ha, Postemergence, scale of 0 to 10 where 0 is no effect and 10 is complete control
[10] = Rate 250 g/ha, Postemergence, scale of 0 to 10 where 0 is no effect and 10 is complete control

## COCC(C)n1c(=O)on(C(=O)N(c2ccc(F)cc2F)C(C)C)c1=O (stereo not drawn) [Compound 357]
morningglory; [1]
  Plant response rating, Morningglory: 2
morningglory; [2]
  Plant response rating, Morningglory: 0
morningglory; Preemergence, Rate 125 g/ha
  Morningglory plant response rating (0 to 10 scale): 2
morningglory; Preemergence, Rate 250 g/ha
  Morningglory plant response rating: 2
morningglory; Preemergence, Rate 500 g/ha
  Morningglory plant response rating: 7
morningglory; Rate 62 g/ha, Postemergence
  Morningglory plant response rating: 2
morningglory; [3]
  Plant response rating, Morningglory: 8
Smallflower flatsedge; [4]
  Plant response rating, S. Flatsedge: 0
Smallflower flatsedge; [5]
  S. Flatsedge plant response rating: 0
Smallflower flatsedge; [6]
  Plant response rating, S. Flatsedge: 8
Sugar beet; [1]
  Plant response rating, Sugarbeets: 0
Sugar beet; [2]
  Plant response rating, Sugarbeets: 2
Sugar beet; Preemergence, Rate 125 g/ha
  Sugarbeets plant response rating (0 to 10 scale): 3
Sugar beet; Preemergence, Rate 250 g/ha
  Sugarbeets plant response rating: 5
Sugar beet; Preemergence, Rate 500 g/ha
  Sugarbeets plant response rating: 6
Sugar beet; Rate 62 g/ha, Postemergence
  Sugarbeets plant response rating: 0
Sugar beet; [3]
  Plant response rating, Sugarbeets: 0
velvetleaf; [1]
  Plant response rating, Velvetleaf: 2
velvetleaf; [2]
  Plant response rating, Velvetleaf: 4
velvetleaf; Preemergence, Rate 125 g/ha
  Velvetleaf plant response rating (0 to 10 scale): 5
velvetleaf; Preemergence, Rate 250 g/ha
  Velvetleaf plant response rating: 5
velvetleaf; Preemergence, Rate 500 g/ha
  Velvetleaf plant response rating: 7
velvetleaf; Rate 62 g/ha, Postemergence
  Velvetleaf plant response rating: 2
velvetleaf; [3]
  Plant response rating, Velvetleaf: 4
cocklebur; [1]
  Plant response rating, Cocklebur: 0
cocklebur; [2]
  Plant response rating, Cocklebur: 0
cocklebur; Preemergence, Rate 125 g/ha
  Cocklebur plant response rating (0 to 10 scale): 0
cocklebur; Preemergence, Rate 250 g/ha
  Cocklebur plant response rating: 0
cocklebur; Preemergence, Rate 500 g/ha
  Cocklebur plant response rating: 0
cocklebur; Rate 62 g/ha, Postemergence
  Cocklebur plant response rating: 0
cocklebur; [3]
  Plant response rating, Cocklebur: 2
Giant foxtail; [1]
  Plant response rating, Giant foxtail: 8
Giant foxtail; [2]
  Plant response rating, Giant foxtail: 10
Giant foxtail; Preemergence, Rate 125 g/ha
  Giant foxtail plant response rating (0 to 10 scale): 10
Giant foxtail; Preemergence, Rate 250 g/ha
  Giant foxtail plant response rating: 10
Giant foxtail; Preemergence, Rate 500 g/ha
  Giant foxtail plant response rating: 10
Giant foxtail; Rate 62 g/ha, Postemergence
  Giant foxtail plant response rating: 8
Giant foxtail; [3]
  Plant response rating, Giant foxtail: 9
Surinam grass; [1]
  Plant response rating, B. signalgrass: 0
Surinam grass; [2]
  Plant response rating, B. signalgrass: 1
Surinam grass; Preemergence, Rate 125 g/ha
  B. signalgrass plant response rating (0 to 10 scale, 0 is no effect, 10 is complete control): 3
Surinam grass; [7]
  B. signalgrass plant response rating: 6
Surinam grass; [8]
  B. signalgrass plant response rating: 7
Surinam grass; [9]
  B. signalgrass plant response rating: 0
Surinam grass; [10]
  Plant response rating, B. signalgrass: 4
Surinam grass; [3]
  Plant response rating, B. signalgrass: 7
Purple nutsedge; [1]
  Plant response rating, Nutsedge: 0
Purple nutsedge; [2]
  Plant response rating, Nutsedge: 0
Purple nutsedge; Preemergence, Rate 125 g/ha
  Nutsedge plant response rating (0 to 10 scale): 0
Purple nutsedge; Preemergence, Rate 250 g/ha
  Nutsedge plant response rating: 0
Purple nutsedge; Preemergence, Rate 500 g/ha
  Nutsedge plant response rating: 6
Purple nutsedge; Rate 62 g/ha, Postemergence
  Nutsedge plant response rating: 0
Purple nutsedge; [3]
  Plant response rating, Nutsedge: 2
wheat; [1]
  Plant response rating, Wheat: 5
wheat; [2]
  Plant response rating, Wheat: 4
wheat; Preemergence, Rate 125 g/ha
  Wheat plant response rating (0 to 10 scale): 6
wheat; Preemergence, Rate 250 g/ha
  Wheat plant response rating: 9
wheat; Preemergence, Rate 500 g/ha
  Wheat plant response rating: 9
wheat; Rate 62 g/ha, Postemergence
  Wheat plant response rating: 4
wheat; [3]
  Plant response rating, Wheat: 7
blackgrass; [1]
  Plant response rating, Blackgrass: 6
blackgrass; [2]
  Plant response rating, Blackgrass: 7
blackgrass; Preemergence, Rate 125 g/ha
  Blackgrass plant response rating (0 to 10 scale): 8
blackgrass; [7]
  Blackgrass plant response rating: 9
blackgrass; [8]
  Blackgrass plant response rating: 10
blackgrass; [9]
  Blackgrass plant response rating: 3
blackgrass; [10]
  Plant response rating, Blackgrass: 6
blackgrass; [3]
  Plant response rating, Blackgrass: 7
pigweed; [1]
  Plant response rating, Redroot pigweed: 0
pigweed; [2]
  Plant response rating, Redroot pigweed: 7
pigweed; Preemergence, Rate 125 g/ha
  Redroot pigweed plant response rating (0 to 10 scale): 10
pigweed; Preemergence, Rate 250 g/ha
  Redroot pigweed plant response rating: 10
pigweed; Preemergence, Rate 500 g/ha
  Redroot pigweed plant response rating: 10
pigweed; Rate 62 g/ha, Postemergence
  Redroot pigweed plant response rating: 0
pigweed; [3]
  Plant response rating, Redroot pigweed: 8
Duck salad; [4]
  Plant response rating, Ducksalad: 0
Duck salad; [5]
  Ducksalad plant response rating: 0
Duck salad; [6]
  Plant response rating, Ducksalad: 2
rape; [1]
  Plant response rating, Rape: 0
rape; [2]
  Plant response rating, Rape: 0
rape; Preemergence, Rate 125 g/ha
  Rape plant response rating (0 to 10 scale): 2
rape; Preemergence, Rate 250 g/ha
  Rape plant response rating: 8
rape; Preemergence, Rate 500 g/ha
  Rape plant response rating: 8
rape; Rate 62 g/ha, Postemergence
  Rape plant response rating: 0
rape; [3]
  Plant response rating, Rape: 4
crabgrass; [1]
  Plant response rating, Crabgrass: 2
crabgrass; [2]
  Plant response rating, Crabgrass: 9
crabgrass; Preemergence, Rate 125 g/ha
  Crabgrass plant response rating (0 to 10 scale): 9
crabgrass; Preemergence, Rate 250 g/ha
  Crabgrass plant response rating: 9
crabgrass; Preemergence, Rate 500 g/ha
  Crabgrass plant response rating: 10
crabgrass; Rate 62 g/ha, Postemergence
  Crabgrass plant response rating: 2
crabgrass; [3]
  Plant response rating, Crabgrass: 5
rice; [4]
  Plant response rating, Rice: 0
rice; [5]
  Rice plant response rating: 0
rice; [6]
  Plant response rating, Rice: 2
corn; [1]
  Plant response rating, Corn: 0
corn; [2]
  Plant response rating, Corn: 0
corn; Preemergence, Rate 125 g/ha
  Corn plant response rating (0 to 10 scale): 0
corn; Preemergence, Rate 250 g/ha
  Corn plant response rating: 6
corn; Preemergence, Rate 500 g/ha
  Corn plant response rating: 9
corn; Rate 62 g/ha, Postemergence
  Corn plant response rating: 0
corn; [3]
  Plant response rating, Corn: 3

Reference: patent publication US6737383B1, “Herbicidal oxadiazolidines” (priority 1999, dated 2004)
